How the values were obtained:
[1] = test system: Thoracic aorta; assay: Vaso-relaxant activity: relaxation of K+-induced contraction of rat thoracic aorta strips; set-up: species or system rats; conditions: rat thoracic aorta strips denuded of endothelium, contraction induced by 20mM K⁺, cumulative concentration; read-out: Vaso-relaxant EC₉₀
Protocol: The test methods used were adapted from those described by Winslow et al [Eur. J. Pharmacol., 131, 219-228 (1986)] and Karaki [J. Pharmacol Methods, 18, 1-21, (1987)] for differentiating vaso-relaxant activity.
Thoracic aorta was removed from rats and transverse strips, denuded of endothelium, were suspended in a bath containing Krebs solution. The tension was recorded and a contraction induced by addition of 20mM K⁺ (potassium ion) to the bathing solution. The test compound was added to the bath as a solution in increasing cumulative concentration. The concentration in the bathing solution of the test compound which reduced the K⁺-induced contraction was determined and expressed in nM as the effective concentration (EC₉₀)

[2] = test system: mean blood pressure; assay: Hypotensive activity in the anaesthetised rat; format: in vivo; conditions: intravenous dose required to reduce the mean blood pressure
Protocol: The intravenous dose required to reduce the mean blood pressure in an anaesthetised rat was determined and expressed in µg/kg/min as the effective concentration (EC₃₀).

[3] = test system: histamine-induced bronchospasm and blood pressure; assay: Broncho-relaxant activity in the anaesthetised guinea pig (method of Dixon and Brodie); format: in vivo; conditions: nebulised aerosol of 200µg/ml aqueous solution for 1 minute; for Broncho-relaxant % maximum bronchospasm: histamine-induced bronchospasm
Protocol: In in vivo tests in the anaesthetised guinea pig, performed according to the method of Dixon W.E. and Brodie T.G., J. Physiol 29, 97-173 (1903), the effect on histamine-induced bronchospasm and blood pressure was determined.
A nebulised aerosol generated from an aqueous solution , having a concentration of 200µg/ml was administered for 1 minute to the anaesthetised guinea pigs.

| SMILES | EC90 [1] [nM] | Hypotensive EC₃₀ [2] [µg/kg/min] | Broncho-relaxant % maximum bronchospasm [3] [%] | Broncho-relaxant B.P. [3] [mmHg] |
| --- | --- | --- | --- | --- |
| CNC(=S)[C@]1(c2cccnc2)CCCC/C1=N\OCc1c(F)c(F)c(F)c(F)c1F [Compound 1, (1S)-anti-N-methyl-2-(2,3,4,5,6-pentafluorobenzyloxyimino)-1-(pyrid-3-yl)cyclohexanecarbothioamide] | 1 | 0.9 | 28 | 40 |
| CNC(=S)[C@]1(c2cccnc2)CCCC/C1=N\OCc1ccc(F)c(F)c1 [Compound 2, (1S)-anti-N-methyl-2-(3,4-difluorobenzyloxyimino)-1-(pyrid-3-yl)cyclohexanecarbothioamide] | 0.3 | 0.5 | 17 | 32 |
